B1: 99 nt nonspecific AU-rich RNA (ssRNA)
RNA: GGGAACAAAAGCUGGGUACCGGGCCCCCCCUCGAGGUCGAUGCAGACAUAUAUGAUACAAUUUGAUCAGUAUAUUAAAGAUAGUUAUGAUUUACAAGCU

What was measured:
A3G:RNA complexes = biological target: T1, A3G:RNA complexes (Homo sapiens, UniProt Q9HC16); experiment: EMSA of A3G:RNA complexes assembled on radiolabeled RNA (disaggregation of HMM); assay type: binding; conditions: range of concentrations
T1 construct: polyhistidine (C); made in house; host or cells: Baculovirus-infected Sf9 insect cells
T1 sequence (Q9HC16 whole entry, one chain of several): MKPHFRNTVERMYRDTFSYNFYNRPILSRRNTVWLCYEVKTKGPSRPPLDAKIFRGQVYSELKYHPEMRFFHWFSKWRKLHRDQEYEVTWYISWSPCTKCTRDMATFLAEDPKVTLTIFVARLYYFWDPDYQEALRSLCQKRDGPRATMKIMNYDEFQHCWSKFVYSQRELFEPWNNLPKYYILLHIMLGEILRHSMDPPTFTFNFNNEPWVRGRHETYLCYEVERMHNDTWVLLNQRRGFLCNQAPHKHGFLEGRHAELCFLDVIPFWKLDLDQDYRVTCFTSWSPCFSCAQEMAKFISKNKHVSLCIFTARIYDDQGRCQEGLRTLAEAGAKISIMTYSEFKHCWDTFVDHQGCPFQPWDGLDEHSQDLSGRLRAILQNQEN
Method: The Electrophoretic Gel Mobility Shift Assay (EMSA) provides a visual and quantitative measure of the efficiency of A3G-RNA complex formation. EMSA was used initially to determine the optimum buffer conditions, molar ratio of A3G to RNA as well as the temperature and the duration of the complex assembly reaction.
The four compounds depicted in FIG. 7 were evaluated for their ability to disaggregate A3G:RNA complexes by treating A3G:RNA complexes assembled on radiolabeled RNA with each chemistry over a range of concentrations and then evaluated for size reduction of HMM by EMSA.

A3G = biological target: T2, A3G (Homo sapiens, UniProt Q9HC16); experiment: In vitro DNA deaminase activity of purified A3G; assay type: biochemical; conditions: purified A3G treated at varying concentrations
T2 construct: polyhistidine (C); made in house; host or cells: Baculovirus-infected Sf9 insect cells
T2 sequence (Q9HC16 whole entry): as the sequence (Q9HC16 whole entry, one chain of several) above

[1] = biological target: T3, HMM A3G (A3G:RNA complexes assembled in cells) (Homo sapiens, UniProt Q9HC16); experiment: In vitro deaminase activity of HMM isolated from TZM-bl-A3G cells; assay type: biochemical; conditions: 20 μM
T3 construct: expressed in transfected cells; host or cells: TZM-bl cells stably transfected with A3G cDNA (TZM-bl-A3G); The HMM fraction was isolated from cell extracts by size exclusion chromatography
T3 sequence (Q9HC16 whole entry, one chain of several): as above
Method: Experiments were performed to directly test whether the compounds could activate antiviral activity from HMM in living cells. For this a cell line that expressed A3G as HMM was created. TZM-bl reporter cells were transfected with A3G cDNA and a cell line with stable expression of A3G was selected (TZM-bl-A3G). To verify HMM A3G, cell extracts were prepared from TZM-bl-A3G cells and fractionated by size exclusion chromatography. […] Isolated HMM had low levels of in vitro deaminase activity (4% dC to dU) that could be activated 10-fold by RNase digestion (FIG. 12, top panel). Treatment of HMM with 20 μM Clonidine and Altanserin activated A3G deaminase activity 6- and 8-fold respectively compared to untreated HMM (FIG. 12, bottom panel).

[2] = system: pseudotyped HIV in TZM-bl cells; experiment: Single round infectivity of pseudotyped HIV in wild type TZM-bl cells; assay type: cell-based; conditions: viruses +/- Vif
Text: (§1) Viral particles were harvested from media of producer cells, normalized based on p24 content and equal number of virus particles were used to infect wild type TZM-bl or TZM-bl-A3G cells. […] However, HIV replication and, consequently Tat expression, are anticipated to be inhibited if dissolution of HMM by A3G activators was able to stimulate host defense.

[3] = system: pseudotyped HIV in TZM-bl-A3G cells; experiment: microbe, parasite or virus in culture; assay type: cell-based
Text: as §1

APOBEC3G (hA3G) = APOBEC3G (hA3G) (Homo sapiens, UniProt Q9HC16 Q9HC16:1-384); experiment: EMSA; Kd stated for optimal AU-rich RNA with G or C every fourth nucleotide; 99 nt RNA selected for the assay; conditions: tags: C-terminal polyhistidine tag
Chain of APOBEC3G (hA3G) (Q9HC16 whole entry, one chain of several): as above
Method: Experiments were performed to determine what length and sequence of nonspecific RNA would yield the most efficient formation of A3G:RNA complexes. A3G was expressed using the Baculovirus system and purified by nickel affinity chromatography. RNAs varying in GC and AU content were synthesized chemically or transcribed in vitro in lengths varying from 10 to 99 nucleotides (nt). A3G:RNA complexes were assembled in vitro with these RNAs over a range of A3G concentrations and the yield of small and large complexes determined by electrophoretic mobility shift on native gels (EMSA). […] A 99 nt RNA was selected for the HTS assay. The RNA used for the following data had the sequence: […]

Molecule | dissolution of A3G:RNA aggregates (HMM) by EMSA (A3G:RNA complexes) | inhibition of A3G deaminase activity (A3G) | activation of A3G deaminase activity compared to untreated HMM [1] [fold] | antiviral activity in TZM-bl cells [2] | inhibition at 20 µM ([3]; Human immunodeficiency virus 1, read-out: inhibition of viral infectivity) [%] | antiviral activity in TZM-bl-A3G cells ([3]; viruses +/- Vif) | Kd (APOBEC3G (hA3G)) [nM]
Clc1cccc(Cl)c1N=C1NCCN1 [Clonidine] | dose-dependent dissolution of A3G:RNA aggregates to faster migrating lower molecular mass (LMM) complexes | none of the hits inhibited A3G deaminase activity | 6 | not in TZM-bl cells | – | – | –
O=C(c1ccc(F)cc1)C1CCN(CCn2c(=S)[nH]c3ccccc3c2=O)CC1 [Altanserin] | completely dissociate RNA from a portion of the A3G complexes | none of the hits inhibited A3G deaminase activity | 8 | not in TZM-bl cells | > 40 | induced antiviral activity in TZM-bl-A3G cells | –
B1 | – | – | – | – | – | – | 30
